Results taken from patent publication US6740671B2 (priority 2000, dated 2004).

Assay: Foliar penetration of C14-labeled ethaboxam into cucumber
Type: in vivo
Conditions: cucumber foliage, 24 hours after spotting; result in words
Procedure: In order to investigate the relationship of the concentration of polyoxyalkylene alkyl ether and the foliar penetration of ethaboxam, foliar penetration experiment was carried out using radioisotope [C^14]-labeled ethaboxam as follows.
Cucumber seeds were sown in a horticultural bed soil of pots having a diameter of 6 cm and grown under glass for 3 weeks. 10 mg of the formulation prepared in the comparative example was diluted in 10 ml of tap water. 20 μl of the diluted solution was taken and thereto was added 1.0 μCi of ethaboxam labeled with C^14(81.7 μCi/mg) to prepare the diluted ethaboxam formulation labeled with C^14. […]
The plants were cut at a distance of 1 cm from the bottom of soil and the cuts were introduced into 250 ml Erlenmeyer flaska 50 ml of the mixed solution of acetonitrile and distilled water(volume ratio=1:4) was added thereto and then, the flask was plugged and shaken for 1 minute. Radioactivity of C^14-ethaboxam in the solution was measured with a liquid scintillation counter and the residue was combusted with a sample oxidizer to collect C^14-carbon dioxide, which was analyzed with the liquid scintillation counter.
Foliar penetration of ethaboxam is calculated by subtracting radioactivity in the solution from the total radioactivity, which is identical with radioactivity in the residue.

Compound: CCNc1nc(CC)c(C(=O)NC(C#N)c2cccs2)s1 (stereo not drawn) [ethaboxam, N-(α-cyano-2-thenyl)-4-ethyl-2-(ethylamino)-5-thiazolecarboxamide]
- foliar penetration of ethaboxam: hardly penetrated into plants in the absence of adjuvant
